Laboratory results taken from PubChem BioAssay AID1189 (EPA DSSTox, 2008).
Activity calls are given as the source filed them.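 The calls were made as follows: active = a tumor-causing dose value with its tumor site reported for any sex and species group of a rodent or other animal cancer study; inconclusive = only studies judged inadequate by the national testing program; inactive = tested in at least one study, none positive.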 Peptide text beside a SMILES is read from it.

Experiment: DSSTox (CPDBAS) Carcinogenic Potency Database Summary SingleCellCall Results
Conditions: animal chronic carcinogenicity bioassays, CPDB summary call
Summary of the method: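 Literature-derived summary: each substance receives an overall carcinogenic/non-carcinogenic category drawn from long-term bioassays in rats, mice, hamsters, dogs or primates, using the most positive sex-species experiment and minimal evidence criteria.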

**Q.** With CC(C)C=O as the compound, how does the outcome read?
**A.** The outcome was “inactive”.

**Q.** Which outcome does the source give for O=[N+]([O-])c1ccc(-c2nc(N(CCO)CCO)c3ccccc3n2)s1 here?
**A.** Its outcome is “active; inactive”.

**Q.** For CCOc1ccccc1C(N)=O, which outcome is on record?
**A.** Its outcome is “active”.

**Q.** For CC1CN1P(=O)(N1CC1C)N1CC1C (centres undefined), which outcome is on record?
**A.** The outcome was “active”.

**Q.** Which outcome does the source give for C=CCc1ccc(OC)cc1 here?
**A.** Its outcome is “active”.

**Q.** Which outcome does the source give for C=C(Cl)CSC(=S)N(CC)CC here?
**A.** The outcome was “active; inactive”.

**Q.** Which outcome does the source give for ClCCCl here?
**A.** The outcome was “active”.

**Q.** For CCCCN(N)C=O, which outcome is on record?
**A.** Its outcome is “active”.

**Q.** Which outcome does the source give for Cc1cccc2ccccc12 here?
**A.** Its outcome is “inactive; active”.

**Q.** Which outcome does the source give for Nc1c(Br)cc(Br)c2c1C(=O)c1ccccc1C2=O here?
**A.** The outcome was “active”.

**Q.** For ON=C1CCCC1, which outcome is on record?
**A.** Its outcome is “active; inactive”.

**Q.** Which outcome does the source give for C=CC(O)c1ccc(OC)cc1 (centres undefined) here?
**A.** Its outcome is “active”.

**Q.** For N/C(=N\O)c1ccc([N+](=O)[O-])o1, which outcome is on record?
**A.** Its outcome is “inactive”.

**Q.** For O.O.O.O.O.O.O=S(=O)([O-])[O-].[Ni+2], which outcome is on record?
**A.** Its outcome is “inactive”.

**Q.** Which outcome does the source give for [O-][Br+2]([O-])O here?
**A.** The outcome was “active”.

**Q.** Which outcome does the source give for Cc1cn([C@H]2C[C@H](N=[N+]=[N-])[C@@H](CO)O2)c(=O)[nH]c1=O here?
**A.** Its outcome is “active”.

**Q.** With Nc1ccc(-c2ccc(F)cc2)cc1 as the compound, how does the outcome read?
**A.** Its outcome is “active”.

**Q.** Which outcome does the source give for CC(C)CN(N=O)C(N)=O here?
**A.** The outcome was “active”.

**Q.** Which outcome does the source give for COC(=O)[C@H](Cc1ccccc1)NC(=O)[C@@H](N)CC(=O)O (H-Asp-Phe-OMe) here?
**A.** The outcome was “inactive”.

**Q.** For CC(COc1ccccc1)N(CCCl)Cc1ccccc1 (centres undefined), which outcome is on record?
**A.** The outcome was “active; inactive”.

**Q.** With CC(=O)NNC(=O)c1ccncc1 as the compound, how does the outcome read?
**A.** Its outcome is “active”.

**Q.** With S=c1[nH]c2ccccc2s1 as the compound, how does the outcome read?
**A.** Its outcome is “active”.

**Q.** With S=[Se] as the compound, how does the outcome read?
**A.** Its outcome is “active”.

**Q.** For Oc1ccccc1O, which outcome is on record?
**A.** The outcome was “active”.

**Q.** Which outcome does the source give for Nc1nnc(-c2ccc([N+](=O)[O-])o2)s1 here?
**A.** The outcome was “active”.

**Q.** With O=S(=O)(O)c1c(N=Nc2c(O)ccc3ccccc23)ccc2ccccc12 as the compound, how does the outcome read?
**A.** Its outcome is “inactive; active”.

**Q.** For O=[N+]([O-])c1ccc(-c2cnc3ccccn23)o1, which outcome is on record?
**A.** Its outcome is “active”.

**Q.** Which outcome does the source give for O=NN1CCCCCC1 here?
**A.** Its outcome is “active”.

**Q.** For NCC(=O)O, which outcome is on record?
**A.** Its outcome is “active”.

**Q.** Which outcome does the source give for CN=C(N)N here?
**A.** Its outcome is “inactive; active”.

**Q.** For C=CC(N)=O, which outcome is on record?
**A.** Its outcome is “active; inactive”.

**Q.** With CC1=C(C(=O)OC(C)C)C(c2cccc([N+](=O)[O-])c2)C(C(=O)OC2CN(C(c3ccccc3)c3ccccc3)C2)=C(N)N1 (centres undefined) as the compound, how does the outcome read?
**A.** Its outcome is “inactive; active”.

**Q.** With CN(N=O)c1ccc(/C=C/c2ccnc3ccccc23)cc1 as the compound, how does the outcome read?
**A.** The outcome was “active”.

**Q.** Which outcome does the source give for CCCCN(CCCC)C(=S)[S-].CCCCN(CCCC)C(=S)[S-].[Ni+2] here?
**A.** Its outcome is “inactive; active”.

**Q.** Which outcome does the source give for C=CCCl here?
**A.** The outcome was “inactive; active”.

**Q.** For N=C1C=CC(=C(c2ccc(N)cc2)c2ccc(N)cc2)C=C1, which outcome is on record?
**A.** The outcome was “active”.

**Q.** For CN(CCc1ccccc1)N=O, which outcome is on record?
**A.** The outcome was “active”.

**Q.** Which outcome does the source give for CC(=O)O[C@H]1CC[C@@]2(C)C(=CC[C@@H]3[C@@H]2CC[C@]2(C)C(=O)CC[C@@H]32)C1 here?
**A.** The outcome was “active”.

**Q.** For CCN(CC)C(=O)c1cccc(C)c1, which outcome is on record?
**A.** Its outcome is “inactive”.

**Q.** For OCCO, which outcome is on record?
**A.** Its outcome is “inactive”.

**Q.** With CCOC(=O)[C@H](CCc1ccccc1)N[C@@H](C)C(=O)N1Cc2ccccc2C[C@H]1C(=O)O as the compound, how does the outcome read?
**A.** The outcome was “inactive; active”.

**Q.** For COc1cc(CNC(=O)CCCC/C=C/C(C)C)ccc1O, which outcome is on record?
**A.** The outcome was “active”.

**Q.** With c1ccc2occc2c1 as the compound, how does the outcome read?
**A.** Its outcome is “active; inactive”.

**Q.** Which outcome does the source give for Cc1ccc([N+](=O)[O-])cc1 here?
**A.** The outcome was “active”.

**Q.** With CC/C(=C(\c1ccccc1)c1ccc(OCCN(C)C)cc1)c1ccccc1 as the compound, how does the outcome read?
**A.** The outcome was “active”.

**Q.** Which outcome does the source give for CCN(Cc1cccc(S(=O)(=O)O)c1)c1ccc(C(=C2C=CC(=[N+](CC)Cc3cccc(S(=O)(=O)O)c3)C=C2)c2ccc(O)cc2S(=O)(=O)[O-])cc1 here?
**A.** The outcome was “inactive”.

**Q.** For CCOC(=O)N(CC)N=O, which outcome is on record?
**A.** Its outcome is “active; inactive”.

**Q.** Which outcome does the source give for CC12CCC(CC1)C(C)(C)O2 here?
**A.** The outcome was “inactive”.

**Q.** For CCCCOC(=O)COc1ccc(Cl)cc1Cl, which outcome is on record?
**A.** Its outcome is “inactive”.

**Q.** For CN(C)CCN(Cc1ccco1)c1ccccn1, which outcome is on record?
**A.** Its outcome is “inactive; active”.

**Q.** With O=C1C2(Cl)C3(Cl)C4(Cl)C(Cl)(Cl)C5(Cl)C3(Cl)C1(Cl)C5(Cl)C24Cl (centres undefined) as the compound, how does the outcome read?
**A.** Its outcome is “active; inactive”.

**Q.** With CCC1NC(=O)C2C(Cl)C(Cl)CN2C(=O)C(CO)NC(=O)CC(c2ccccc2)NC(=O)C(CO)NC1=O (centres undefined) as the compound, how does the outcome read?
**A.** Its outcome is “active; inactive”.

**Q.** For NC(=O)CCCCn1ccc(NC(N)=NCC(F)(F)F)n1, which outcome is on record?
**A.** The outcome was “active; inactive”.

**Q.** With CCOc1ccc2c(c1)C(C)=CC(C)(C)N2 as the compound, how does the outcome read?
**A.** The outcome was “inactive; active”.

**Q.** With NC(=O)N/N=C/c1ccco1 as the compound, how does the outcome read?
**A.** Its outcome is “inactive”.

**Q.** Which outcome does the source give for Oc1ccc(O)cc1 here?
**A.** The outcome was “active”.

**Q.** With Brc1cc(Br)c(-c2c(Br)c(Br)c(Br)c(Br)c2Br)c(Br)c1Br as the compound, how does the outcome read?
**A.** The outcome was “active; inactive”.

**Q.** Which outcome does the source give for CC(O)CN(C)N=O (centres undefined) here?
**A.** Its outcome is “active”.

**Q.** Which outcome does the source give for Cc1cc(N=Nc2c(O)ccc3ccccc23)c(S(=O)(=O)O)cc1Cl here?
**A.** The outcome was “active; inactive”.

**Q.** Which outcome does the source give for OC[C@H]1O[C@@](CO)(O[C@H]2O[C@H](CO)[C@@H](O)[C@H](O)[C@H]2O)[C@@H](O)[C@@H]1O here?
**A.** The outcome was “inactive”.

**Q.** For ClCOCCCCCCOCCl, which outcome is on record?
**A.** The outcome was “inactive”.

**Q.** With Nc1ccc(N)cc1 as the compound, how does the outcome read?
**A.** The outcome was “inactive”.

**Q.** With O=C1O[C@H]([C@H](O)CO)C(O)=C1O as the compound, how does the outcome read?
**A.** The outcome was “inactive; active”.

**Q.** Which outcome does the source give for Nc1ccc(Cl)cc1N here?
**A.** The outcome was “active”.
